Biological target: T1, glucocorticoid receptor (Homo sapiens, UniProt P04150)
T1 construct: expressed in transfected cells
T1 sequence (P04150 524-758 limits assumed): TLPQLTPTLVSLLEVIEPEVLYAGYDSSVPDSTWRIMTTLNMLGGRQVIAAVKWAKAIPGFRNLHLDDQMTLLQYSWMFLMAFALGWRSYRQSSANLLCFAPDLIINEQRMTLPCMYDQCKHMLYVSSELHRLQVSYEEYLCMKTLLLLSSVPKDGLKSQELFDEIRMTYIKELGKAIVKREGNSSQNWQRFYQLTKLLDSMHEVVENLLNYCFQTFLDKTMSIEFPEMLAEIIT
Test: Agonistic mode of action on the glucocorticoid receptor (CHO-Gal4/GR luciferase reporter cell line)
Assay type: cell-based
Settings: range class observed in the agonistic assay or the antagonistic assay (CHO-Gal4/GR reporter cells); table does not say which mode applies per example
Text: Potential selective glucocorticoid receptor modulators of this intervention can be tested for modulation of the activity of the glucocorticoid receptor using cell-based assays. These assays involve a Chinese hamster ovary (CHO) cell line which contains fragments of the glucocorticoid receptor as well as fusion proteins. The glucocorticoid receptor fragments used are capable of binding the ligand (e.g. beclomethasone) to identify molecules that compete for binding with glucocorticoid receptor ligands. In more detail, the glucocorticoid receptor ligand binding domain is 25 fused to the DNA binding domain (DBD) of the transcriptionfactor GAL4 (GAL4 DBD-GR) and is stably integrated into a CHO cell line containing a GAL4-UAS-Luciferase reporter construct. […] After cell lysis the luminescence that is produced by luciferase after addition of the substrate is detected and EC50 or IC50 values can be calculated. Engagement of molecules which induce gene expression via glucocortocoid receptor binding to the DNA leads to expression of the luciferase gene under the control of the fusion protein GAL4 DBD-GR and therefore to a dose-dependent increase of the luminescence signal. Binding of molecules which repress beclomethasone-induced gene expression of the luciferase gene under the control of the fusion protein GAL4 DBD-GR leads to a dose-dependent reduction of the luminescence signal.
Biological Assays Agonistic Mode of Action on the Glucocorticoid Receptor
The reporter cell line CHO-Gal4/GR consisted of a Chinese hamster ovary (CHO) cell line (Leibniz Institute DSMZ—German Collection of Microorganisms and Cell CuItures GmbH: ACC-110) containing a firefly luciferase gene under the control of the GR ligand binding domain fused to the DNA binding domain (DBD) of GAL4 (GAL4 DBD-GR) stably integrated into CHO cells. This cell line was established by stable transfection of CHO cells with a GAL4-UAS-Luciferase reporter construct. In a subsequent step the ligand binding domain of the GR cloned into pIRES2-EGFP-GAL4 containing the DNA binding domain of GAL4 from pFA-AT2 was transfected. This fusion construct activated firefly luciferase expression under the control of a multimerized GAL4 upstream activation sequence (UAS). The signal of the emitted luminescence was recorded by the FLIPR^TETRA. This allowed for specific detection of ligand-induced activation of the GR and therefore for the identification of compounds with agonistic properties. The GAL4/UAS reporter was premixed with a vector that constitutively expressed Renilla luciferase, which served as an internal positive control for transfection efficiency.
The complete culture medium for the assay was: • DMEM F-12 (1:1) MIXTURE (LONZA cat. N°: BE04-687F/U1) 500 mL • 5 mL of 100 mM Sodium Pyruvate (LONZA cat. N°: BE12-115E) • 25 mL of 7.5% Sodium Bicarbonate (LONZA cat. N° BE17-613E) • 6.5 mL of 1 M Hepes (LONZA cat. N°: BE17-737E) • 5 mL of 100× Penicillin/Streptomycin (LONZA cat. N° DE17-602E) • 50 mL of Fetal Bovine Serum (Euroclone cat. N° ECS 0180L) • 0.25 mL of 10 mg/mL Puromycin (InvivoGen cat.: ant-pr-1) • 0.5 mL of 100 mg/mL Zeocin (InvivoGen cat.: ant-zn-1)
Cryo-preserved CHO-Gal4/GR cells were suspended in complete medium and 5000 cells/25 μl/well were seeded into the wells of 384-well polystyrene assay plates (Thermo Scientific, cat. #4332) and cultured at 37° C., 5% CO2 and 95% humidity. After 24 hours growth medium was carefully removed and replaced by 30 μl Opti-MEM (GIBCO, cat. #31985062) as assay buffer. To test the compounds an 8-point half-log compound dilution curve was generated in 100% DMSO starting from a 2 mM stock and compounds were then diluted 1:50 in Opti-MEM. 10 μl of compounds were then added to the wells containing 30 μl Opti-MEM resulting in a final assay concentration range from 10 μM to 0.003 μM in 0.5% DMSO. Compounds were tested at 8 concentrations in quadruplicate data points.

Row | IC50 or EC50 (agonist or antagonist mode not specified) | Structure (SMILES)
1 | < 100 nM | Cc1c(-c2cc(F)cc3c(C4CC4)c[nH]c23)c(F)cc2c1-n1c(C)nnc1C(C)(C)N2 [Example 33, 8-(3-cyclopropyl-5-fluoro-1H-indol-7-yl)-7-fluoro-1,4,4,9-tetramethyl-4,5-dihydro-[1,2,4]triazolo[4,3-a]quinoxaline]
2 | < 100 nM | CC#Cc1c[nH]c2c(-c3c(F)cc4c(c3C)-n3c(COC)nnc3C(C)(C)N4)cc(F)cc12 [Example 76, 7-fluoro-8-(5-fluoro-3-(prop-1-yn-1-yl)-1H-indol-7-yl)-1-(methoxymethyl)-4,4,9-trimethyl-4,5-dihydro-[1,2,4]triazolo[4,3-a]quinoxaline]
3 | < 100 nM | Cc1nnc2n1-c1c(cc(F)c(-c3cccc4c3ccn4S(=O)(=O)CC3CC3)c1F)NC2(C)C [Example 210, 8-[1-(Cyclopropyl-methylsulfonyl)-1H-indol-4-yl]-7,9-difluoro-1,4,4-trimethyl-5H-[1,2,4]triazolo[4,3-a]quinoxaline]
4 | 1000 to 15000 nM | COCCn1ccc2c(-c3c(C(F)F)cc4c(c3F)-n3c(C)nnc3C(C)(C)N4)cc(F)cc21 [Example 396, 7-(Difluoro-methyl)-9-fluoro-8-[6-fluoro-1-(2-methoxy-ethyl)-1H-indol-4-yl]-1,4,4-trimethyl-5H-[1,2,4]triazolo[4,3-a]quinoxaline]
5 | 100 to 1000 nM | Cc1c(-c2ccc(F)c3[nH]ncc23)c(F)cc2c1-n1c(C)nnc1C(C)(C)N2 [Example 524, 7-Fluoro-8-(7-fluoro-1H-indazol-4-yl)-1,4,4,9-tetramethyl-5H-[1,2,4]triazolo[4,3-a]quinoxaline]
6 | 100 to 1000 nM | Cc1nnc2n1-c1c(cc(F)c(-c3ccc(F)c4c3ccn4S(C)(=O)=O)c1C(F)(F)F)NC2(C)C [Example 484, 7-Fluoro-8-(7-fluoro-1-methyl-sulfonyl-1H-indol-4-yl)-1,4,4-trimethyl-9-(trifluoromethyl)-5H-[1,2,4]triazolo[4,3-a]quinoxaline]
7 | 1000 to 15000 nM | CCc1nnc2n1-c1c(cc(F)c(-c3c(F)ccc4[nH]ccc34)c1C)NC2(C)C [Example 244, 1-Ethyl-7-fluoro-8-(5-fluoro-1H-indol-4-yl)-4,4,9-trimethyl-5H-[1,2,4]triazolo[4,3-a]quinoxaline]
8 | < 100 nM | CCS(=O)(=O)n1ccc2c(-c3c(F)cc4c(c3C(F)F)-n3c(C)nnc3C(C)(C)N4)cccc21 [Example 461, 9-(Difluoro-methyl)-8-[1-(ethylsulfonyl)-1H-indol-4-yl]-7-fluoro-1,4,4-trimethyl-5H-[1,2,4] triazolo[4,3-a]quinoxaline]
9 | 1000 to 15000 nM | Cc1nnc2n1-c1c(cc(F)c(-c3cccc4c3ccn4S(=O)(=O)C(C)C)c1C(F)F)NC2(C)C [Example 400, 9-(Difluoro-methyl)-7-fluoro-8-[1-(isopropylsulfonyl)-1H-indol-4-yl]-1,4,4-trimethyl-5H-[1,2,4]triazolo [4,3-a]quinoxaline]
10 | 100 to 1000 nM | Cc1nnc2n1-c1c(cc(F)c(-c3cc(F)cc4cc[nH]c34)c1C(F)F)NC2(C)C [Example 515, 9-(Difluoro-methyl)-7-fluoro-8-(5-fluoro-1H-indol-7-yl)-1,4,4-trimethyl-5H-[1,2,4]triazolo[4,3-a] quinoxaline]
11 | < 100 nM | Cc1c[nH]c2c(-c3c(F)cc4c(c3C(F)(F)F)-n3c(C)nnc3C(C)(C)N4)cccc12 [Example 29, 7-fluoro-1,4,4-trimethyl-8-(3-methyl-1H-indol-7-yl)-9-(trifluoromethyl)-4,5-dihydro-[1,2,4]triazolo[4,3-a]quinoxaline]
12 | < 100 nM | Cc1nnc2n1-c1c(cc(F)c(-c3cc(Cl)cc4[nH]ccc34)c1F)NC2(C)C [Example 511, 8-(6-Chloro-1H-indol-4-yl)-7,9-difluoro-l,4,4-trimethyl-5H-[1,2,4]triazolo[4,3-a]quinoxaline]
13 | 100 to 1000 nM | Cc1nnc2n1-c1c(cc(F)c(-c3cccc4c3cnn4S(=O)(=O)CC3CC3)c1F)NC2(C)C [Example 239, 8-[1-(Cyclopropyl-methylsulfonyl)-1H-indazol-4-yl]-7,9-difluoro-1,4,4-trimethyl-5H-[1,2,4]triazolo[4,3-a]quinoxaline]
14 | 100 to 1000 nM | Cc1n[nH]c2c(-c3c(F)cc4c(c3C(F)F)-n3c(C)nnc3C(C)(C)N4)cccc12 [Example 367, 9-(Difluoro-methyl)-7-fluoro-1,4,4-trimethyl-8-(3-methyl-1H-indazol-7-yl)-5H-[1,2,4]triazolo[4,3-a]quinoxaline]
15 | 1000 to 15000 nM | COc1c(-c2cccc3c2cnn3S(C)(=O)=O)c(F)cc2c1-n1c(C)nnc1C(C)(C)N2 [Example 342, 7-Fluoro-9-methoxy-1,4,4-trimethyl-8-(1-methylsulfonyl-1H-indazol-4-yl)-5H-[1,2,4]triazolo[4,3-a] quinoxaline]
16 | < 100 nM | Cc1nnc2n1-c1c(cc(F)c(-c3cccc4c3ccn4S(C)(=O)=O)c1C1CC1)NC2(C)C [Example 462, 9-Cyclopropyl-7-fluoro-1,4,4-trimethyl-8-(1-methylsulfonyl-1H-indol-4-yl)-5H-[1,2,4]triazolo [4,3-a]quinoxaline]
17 | < 100 nM | CC(=O)n1ccc2c(-c3c(F)cc4c(c3F)-n3c(C)nnc3C(C)(C)N4)cc(F)cc21 [Example 4, 1-(4-(7,9-difluoro-1,4,4-trimethyl-4,5-dihydro-[1,2,4]triazolo[4,3-a]quinoxalin-8-yl)-6-fluoro-1H-indol-1-yl)ethanone]
18 | 100 to 1000 nM | Cc1nnc2n1-c1c(cc(F)c(-c3cccc4c(C5CC5)c[nH]c34)c1Cl)NC2(C)C [Example 85, 9-Chloro-8-(3-cyclopropyl-1H-indol-7-yl)-7-fluoro-1,4,4-trimethyl-5H-[1,2,4]triazolo[4,3-a]quinoxaline]
19 | 100 to 1000 nM | Cc1nnc2n1-c1c(cc(F)c(-c3cccc4cc[nH]c34)c1C(F)(F)F)NC2(C)C [Example 86, 7-fluoro-8-(1H-indol-7-yl)-1,4,4-trimethyl-9-(trifluoromethyl)-4,5-dihydro-[1,2,4]triazolo[4,3-a]quinoxaline]
20 | 100 to 1000 nM | Cc1n[nH]c2c(-c3c(F)cc4c(c3F)-n3c(C)nnc3C(C)(C)N4)cccc12 [Example 354, 7,9-Difluoro-1,4,4-trimethyl-8-(3-methyl-1H-indazol-7-yl)-5H-[1,2,4]triazolo[4,3-a]quinoxaline]
21 | < 100 nM | Cc1nnc2n1-c1c(cc(F)c(-c3ccc(F)c4[nH]ccc34)c1C(F)F)NC2(C)C [Example 496, 9-(Difluoro-methyl)-7-fluoro-8-(7-fluoro-1H-indol-4-yl)-1,4,4-trimethyl-5H-[1,2,4]triazolo[4,3-a] quinoxaline]
